Laboratory results taken from patent US20250221936A1, “ENGINEERED HEMICHANNELS, ENGINEERED VESICLES, AND USES THEREOF” (VIRGINIA TECH INTELLECTUAL PROPERTIES, INC., priority 2018, published 2025).
Entries after “also recorded” stand apart in the source; their conditions may differ.

Key:
[1] = biological target: T1, PKC-ε phosphorylation of Cx43-CT substrate at Ser368 (Rattus norvegicus, UniProt P08050); conditions: purified PKC enzyme and Cx43 CT substrate; cited from earlier work
T1 construct: substrate (Cx43-CT: amino acids 255 to 382); GST (N); made in house; host or cells: E. coli BL21 (Cx43 CT); PKC-ε purchased (Life, 37717L)
T1 sequence (P08050 255-382): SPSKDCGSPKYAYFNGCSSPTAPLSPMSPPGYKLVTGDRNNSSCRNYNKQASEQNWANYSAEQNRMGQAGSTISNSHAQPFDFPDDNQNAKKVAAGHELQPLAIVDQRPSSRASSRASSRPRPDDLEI

porcine kidney = conditions: 100 μm in Belzer's solution, on ice 24 h; cited from earlier work
[2] = test system: U87 MG glioblastoma cells; conditions: cited from earlier work
Cx43 Y313-A348 peptide [3] = biological target: T2, Cx43 Y313-A348 peptide (Rattus norvegicus, UniProt P08050); test: SPR of captured aCT1 with Cx43 Y313-A348 peptide; assay type: binding; conditions: unlinked Cx43 Y313-A348 peptide (25 µM)
T2 construct: made in house; host or cells: chemical synthesis
T2 sequence (P08050 with tags, fused parts or gaps): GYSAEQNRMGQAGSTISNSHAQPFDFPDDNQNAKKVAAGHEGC
Method: (§1) FIGS. 28A-28D. […] (FIG. 28B) Schematic representation of the Cx43 Y313-A348 peptide synthesized for a binding surface surrogate 1 with linkable cysteine (Cys) on the amino terminus and CT. (FIG. 28C) Single letter amino acid sequence of Cx43 Y313-A348 peptide with predicted helix secondary structure underlined. (FIG. 28D) Surface Plasmon Resonance (SPR) analysis of substrate captured aCT1 (700-1000 RUs) binding recombinant Cx43 CT (100 µM, light grey), unlinked Cx43 Y313-A348 peptide (25 µM, black), and disulfide linked Cx43 Y313-A348 (25 µM, dark grey). […] Disulfide cross-linking Cx43 Y313-A348 into a looped conformation results in a loss of aCT1 binding, thus aCT1 interaction with this peptide requires a degree conformational flexibility. Cx43 Y313-A348 peptide can provide an assay for screening for novel Cx43 interacting drugs.
(§2) A […] peptide mimetic encompassing amino acids Y313 through A348 of the Cx43 CT was synthesized, containing the H1 and H2 a-helical regions (FIGS. 28A-28D). […] Cx43 Y313-A348 was designed to have cysteines at its NT and CT, which were used to disulfide cross-link the peptide into a cyclized conformation (FIG. 28B). […]

Cx43 Y313-A348 peptide [4] = test: SPR of captured aCT1 with Cx43 Y313-A348 peptide; assay type: binding; conditions: disulfide linked Cx43 Y313-A348 (25 µM)
Method: as §1, §2

Cx43-Hela cells = test: Cx43 and ZO-1 immunofluorescent labeling; assay type: cell-based; conditions: 10 μM for 2, 4, 24, or 48 hours
Method: Given that the 10UM concentration of peptide was not toxic to cells, the inventors treated Cx43-Hela cells with 10 μM JM1 or JM2 for 2, 4, 24, or 48 hours followed by fixation and immunofluorescent labeling of Cx43 and ZO-1. Said peptides can be loaded into the provided EVs and can elicit results similar to those observed for naked peptide as follows. […] However, the most striking effects were on ZO-1 organization. In control cells ZO-1 localized to cell borders, often at sites of small, finger-like projections between the cells. Cytoplasmic ZO-1 was also notable. In JM-treated cells a strong contrast in the ratio of cell border to cytoplasmic ZO-1 was found, with relative levels at cell borders being increased over controls. […] There was also a noticeable increase in the number of cells per area of field, supporting the earlier observation that JM2 treated cells appeared to proliferate and survive at an increased rate.

Cx43-HeLa = assay type: cell-based
Method: The first tests of JM1 and JM2 were performed and the experiments centered on the basic cell biology of the peptides.

silicone implant = test: Silicone implants coated with JM2; assay type: in vivo, rat; conditions: 180 micomolar in 25% pluronic gel
Method: 25% pluronic F127 gel (Sigma-Aldrich, St. Louis, MO 63103), which is liquid at 4° C., but gels at 37° C., was used as a delivery vehicle for JM2 peptide. Pluronic gel has mild surfactant properties that aid in peptide dispersion. The JM2 peptide was reconstituted in IX PBS containing the 25% pluronic gel to a final concentration of 180 micomolar.
Animals were anesthetized with 2.75% isoflurane balance oxygen gas. After achievement of general anesthesia, the surgical site consisting of the animal's upper back was prepped by clipping fur down to skin and applying betadine scrub solution in triplicate. Sterile towels were draped to define the surgical field. PWAS Silicone sensors (5 mm diameter) were autoclave sterilized and warmed to 37° C. prior to implantation. For the treatment group, implants were dipped twice in JM2 pluronic solution prior to implantation. For the vehicle control group, the implants were dipped in saline only. This coating procedure produced an even coating of the implant. A muscle pocket was created under the latissimus dorsi muscle and implants were inserted. 50 μL of the corresponding solution was also injected into the muscle pocket prior to closure. The muscles were reapproximated with 4-0 Prolene (Ethicon Inc, Somerville, NJ 08876) and the skin closed with 4-0 Prolene and skin staples. […]

| Sequence | S368 phosphorylation in vitro [1] | Cx43 staining (porcine kidney) | nitrotyrosine staining (porcine kidney) | aggregation [2] | SPR interaction (Cx43 Y313-A348 peptide [3]) | SPR interaction (Cx43 Y313-A348 peptide [4]) | Cx43 and ZO-1 localization (Cx43-Hela cells) | toxicity (cell death) (Cx43-HeLa) | confluence (Cx43-HeLa; 24 hours) | healing, capsule formation, scarring and fibrosis (silicone implant) | inflammation and skeletal muscle necrosis (silicone implant) |
| --- | --- | --- | --- | --- | --- | --- | --- | --- | --- | --- | --- |
| RQPKIWFPNRRKPWKKRPRPDDLEI [alpha CT1] | promoted S368 phosphorylation in vitro in a dose-dependent manner | Punctate Cx43 staining in the membrane (gap junctions) were preserved | no changes in nitrotyrosine staining in the presence of ACT1 peptide | higher degree of aggregation | levels of interaction with aCT1 comparable to the full Cx43 CT sequence | complete loss of aCT1 binding | – | – | – | – | – |
| VFFKGVKDRVKGRSD [JM2] | – | – | – | – | – | – | greater cytoplasmic Cx43 was observed; also recorded: well defined cell-cell interfaces | no obvious toxicity | more confluent than control cells | improved healing and decreased capsule formation, scarring and fibrosis | decreased inflammation and reduced skeletal muscle necrosis |
